Patent publication US12503426B2, “Synthetic derivatives of oleoyl-lysophosphatidylinositol (oleoyl-LPI) and uses thereof” (LIPOVEXA SRL, priority 2017, dated 2025)

Assays:
Glutag cells = assay: GLP-1 secretion by Glutag cells; type: cell-based, murine; details: Glutag cells
Protocol: Glutag cells were maintained in low glucose DMEM (Sigma) (1 g/L) containing 2.0 mM L-glutamine, 1.0 mM sodium pyruvate and supplemented with 10% FBS, 100 IU/ml penicillin, 100 μg/ml streptomycin at a 37° C. and 5% CO2.
Approximately 80,000 Glutag cells were plated in poly-L-lysine-coated 24-well culture plates and grown to about 80% confluence. NCI-H716 cells were seeded on growth factor reduced Matrigel™ (Becton Dickinson, Bedford, MA) in DMEM medium, supplemented with 10% FBS the day before the experiment. For NCI-H716 cells, approximately 25,000 cells were needed for this secretion experiment in order to have good stimulation with lower basal GLP-1 secretion. In brief, Glutag and NCI-H716 cells were washed twice and then incubated for 2 h with FBS-free DMEM containing 1% (M:C) alone (negative control), 10 μM forskolin as positive control (Sigma-Aldrich), or with different concentrations of Oleoyl-LPI. M:C was used as a solvent to prepare stock solutions of fatty acid derivatives and inhibitors. For secretion experiments, medium and cells were collected separately.
In separate studies, GLUTag or NCI-H716 cells were pre-treated for 1 hour with medium alone (1% DMSO, negative control), PD98059 (50 μM; Sigma Chemical Co.), H89 (10 μM; Santa Cruz) followed by treatment with oleoyl-LPI (20 μM), OEA (10 μM), AR231453(1 μM), PMA (10 μM) or forskolin (10 μM, positive control) in the presence of inhibitors, as appropriate, for about 2 h. Medium GLP-1 secretion was calculated as total GLP-1 content of medium normalised for the basal secretion of the control.
In order to investigate the role of different LPI species in enteroendocrine cells, murine (Glutag) and human (NCI-H716) L-cells were stimulated with the following different species of LPI: Arachidonyl-LPI, Stearoyl-LPI, Heptadecenoyl-LPI and oleoyl-LPI, as well as with OEA and LPC. Experiments were performed in duplicate, n=4 and the level of total GLP-1 was measured by ELISA.

NCI-H716 cells = assay: GLP-1 secretion in NCI-H716 cells, in vitro human L cells model (Examples 30-33); type: cell-based; details: for Emax: Homo sapiens, NCI-H716, 2 h; for activity in inducing and/or increasing secretion of GLP-1 from cells of the GI tract: summary statement, compared with oleoyl-LPI; for GLP-1 biosynthesis and secretion from NCI-H716 L cells / level of GLP-1 biosynthesis and secretion compared with oleoyl-LPI: 20 μM, 2 hours; for GLP-1 biosynthesis and secretion from NCI-H716 L cells: normalized against DMSO vehicle control
Protocol: (§1) To evaluate the GLP-1 biosynthesis and secreting capabilities of the compounds of formula I in vitro using the human-derived cell line NCI-H716, 50,000 such cells were seeded per well of a 24-well plate pre-coated with a thin layer of Matrigel (0.15 mg/ml) in RPMI complete (RPMI additioned with FBS 10%, Glucose 2 g/L, Glutamine 4 mM, Sodium Bicarbonate 2 g/L, Pen/Strep 1× pH 7.4 at 37° C.) and incubated at 37° C. in humidified 5% CO2 atmosphere to induce endocrine differentiation.
After 48 hours, media was withdrawn and cells washed once with warm HBSS (Hank's balanced salt solution) and then incubated in duplicate for 2 hours with the different dilutions of the oleoyl-LPI, OEA, DMSO (as negative control), a test compound of formula I, and KR-62436 10 μg/ml, all dissolved in RPMI serum free (RPMI complete without FBS) at 37° C. in humidified 5% CO2 incubator. Supernatant were quickly collected on ice and stored at −80° C. before quantification of GLP-1 with a commercial ELISA (EMD Millipore) specific for active-GLP-1 species.
as §1, with “1×pH” for “1× pH”
After 48 hours, media was withdrawn and cells washed twice with pre-warm HBSS (Hank's balanced salt solution) and then incubated in duplicate for 2 hours with 250 μl of 20 μM of either oleoyl-LPI, DMSO (as negative control) or a test compound of formula I, and […], all dissolved in RPMI serum free (RPMI complete without FBS) at 37° C. in humidified 5% CO2 incubator. Compounds of formula I tested were ps297b, ps316a, ps318a, ps319a, ps321a and ps323.
Supernatant were quickly collected on ice and stored at −80° C. before quantification of GLP-1 with a commercial ELISA (EMD Millipore) specific for active-GLP-1 species (e.g., GLP-1 (7-36) amide) and […]).
Compounds of formula I were tested for GLP-1 secretion in NCI-H716 cells essentially as describe in examples 30 and 31 above. EC50 GLP-1 secretion readout results were standardized relative to maximum GLP-1 secretion obtained with oleoyl-LPI. EC50 readout results were rated as low GLP-1 secretion activity (0-20% of maximum GLP-1 secretion achieved with oleoyl-LPI), moderate (21-79% of maximum GLP-1 secretion achieved with oleoyl-LPI), and high GLP-1 activity (80% and more of maximum GLP-1 secretion achieved with oleoyl-LPI). Table 3 also outlines the R1, R2 and R3 substituents of the compounds of formula I.

[1] = tested on: colonic cells of the GI tract obtained from guinea pig; assay: Ex vivo GLP-1 biosynthesis and secretion, guinea pig GI tract cells; type: cell-based
Protocol: To test for this, a pregnant guinea pig was anesthetized with isoflurane and sacrificed via intra-cardial injection of pentobarbital. Colon and rectum were quickly collected and intraluminal content washed out with ice-cold HBSS. After a thorough cleansing from the faecal material, and gentle scraping of the internal mucosa, the tissue was minced into 3 to 5-millimetre pieces and resuspended into 50 ml of ice cold HBSS. Pellet was spun down and washed again in 50 ml of ice-cold HBSS. Supernatant was carefully removed, and the epithelial fragments were then resuspended for 30 minutes at 37° C. into a 5 ml solution of HEPES 25 mM, collagenase-P 1 mg/ml in HBSS, pH 7.4 at 37° C.
The tissue was then pelleted and resuspended further for about 30 to 40 additional minutes at 37° C. within a 10 ml solution of 1 mg/ml collagenase-P as above.
After the digestion, about 40 ml of pre-warmed DMEM complete media was added (FBS 10%, glucose 4.5 g/L, glutamine 4 mM, sodium pyruvate 1 mM, HEPES 25 mM, sodium bicarbonate 3.7 g/L, Pen/Strep 1× and Ciprofloxacin 10 μg/ml pH 7.4 at 37° C.). Crypts and individual cells were isolated with a […] nylon strainer, spun down at 200 g for 5 minutes, resuspended into 10 ml of DMEM complete media and plated into 20 wells of a 24-well plate coated with a 3D gel of 3 mg/ml Matrigel (BD, Biosciences, Oxford, UK). After one day of incubation at 37° C. 5% CO2 in a humidified incubator, cells were washed with 500 μl of warm HBSS, and treated with 250 μl DMEM serum free (Complete medium without FBS) additioned with KR-62436 10 μg/ml and individually the following drugs or compounds: Forskolin and IBMX (20 μM each), oleoyl-LPI, and the two oleoyl-LPI analogs and/or derivatives ps297b (prepared as described in example 13) and ps316a (prepared as described in example 22) were all tested in quadruplicate at 20 μM.
After a 2-hour long incubation at 37 C 5% CO2, the supernatants were collected on ice, and quickly stored at […]. Active GLP-1 levels (7-37 amide and 7-36) were quantified on 50 μl of supernatant with an ELISA commercial kit (EMD Millipore). DMSO was used as a negative control, the combination of Forskolin and IBMX was included as positive control activators GLP-1. GLP-1 levels measured were standardized against the DMSO control.
The EC50 levels each one of oleoyl-LPI, compound ps297b and compound ps316a were also measured in quadruplicates at the conclusion of the 2 hour incubation. Guinea pig cells obtained as described above were also incubated with […] in quadruplicates and subjected to 2-hour long incubation at 37 C 5% CO2 as described above and EC50 levels measured.

[2] = NCI-H716 cells, standardized relative to maximum GLP-1 secretion obtained with oleoyl-LPI

Structure (SMILES)	Emax (NCI-H716 cells; [2])	further results
CC(C)c1noc(C2CCN(c3ncnc(Nc4ccc(S(C)(=O)=O)cc4F)c3[N+](=O)[O-])CC2)n1 [AR-231,453]		GLP-1 secretion (Glutag cells; two hours treatment, compound alone): significantly increases GLP-1 secretion
CCCCC/C=C\C/C=C\C/C=C\C/C=C\CCCC(=O)NCc1ccc(O)c(OC)c1 [Arvanil, N-arachidonoyl-vanillyl-amide]		antagonist activity for GPR119 (inventors' conclusion) (Glutag cells): weak antagonist for GPR119; GLP-1 secretion, combination treatment (Glutag cells; Arvanil together with AR-231,453): significantly reduced GLP-1 secretion; GLP-1 secretion, combination treatment (Glutag cells; Arvanil with either OEA or LPI): significantly enhanced GLP-1 secretion
CCCCCCCC/C=C\CCCCCCCC(=O)Nc1ccc(C#N)cc1 [ps292a]	0 to 20%	
CCCCCCCC/C=C\CCCCCCCC(=O)Nc1ccc(C(=O)OC)cc1 [ps293a]	0 to 20%	
CCCCCCCC/C=C\CCCCCCCC(=O)Nc1ccc(C(=O)O)cc1 [ps294a]	0 to 20%	
CCCCCCCC/C=C\CCCCCCCC(=O)Nc1ccc(-c2nnn(C)n2)cc1 [ps298a]	0 to 20%	
CCCCCCCC/C=C\CCCCCCCC(=O)Nc1ccc(-c2nnnn2C)cc1 [ps298b]	0 to 20%	
CCCCCCCC/C=C\CCCCCCCC(=O)Nc1ccc(O)cc1 [ps300b]	0 to 20%	
CCCCCCCC/C=C\CCCCCCCC(=O)Nc1ccc(OC)cc1 [ps301a]	0 to 20%	
CCCCCCCC/C=C\CCCCCCCC(=O)Nc1ccc(C#N)cc1F [ps306a]	0 to 20%	
CCCCCCCC/C=C\CCCCCCCC(=O)Nc1ccc(C#N)c(F)c1 [ps308c]	0 to 20%	
CCCCCCCC/C=C\CCCCCCCC(=O)Nc1ccc(-c2nnn[nH]2)cc1F [ps309a]	> 80%	activity in inducing and/or increasing secretion of GLP-1 from cells of the GI tract (NCI-H716 cells): equal to or higher than oleoyl-LPI
CCCCCCCC/C=C\CCCCCCCC(=O)Nc1ccc(-c2nnn[nH]2)c(F)c1 [ps312a]	21 to 79%	
CCCCC/C=C\C/C=C\CCCCCCCC(=O)Nc1ccc(C#N)cc1 [ps314b]	0 to 20%	
CCCCCCCC/C=C\CCCCCCCC(=O)Nc1cccc(C#N)c1 [ps315a]	0 to 20%	
CCCCC/C=C\C/C=C\CCCCCCCC(=O)Nc1ccc(-c2nnn[nH]2)cc1 [ps316a]	> 80%	GLP-1 levels compared with oleoyl-LPI ([1]; 20 μM, 2 hours): above those observed for the endogenous GRP119 ligand, oleoyl-LPI; GLP-1 biosynthesis and secretion ex vivo ([1]; 20 μM, 2 hours, standardized against DMSO control): stimulated biosynthesis and secretion; stability after incubation ex vivo ([1]; 2 hours incubation ex vivo): remained stable after 2 hours incubation ex vivo; EC50 ([1]; Cavia porcellus, ex vivo incubation 2 hours, quadruplicates): 22.4 µM; GLP-1 biosynthesis and secretion from NCI-H716 L cells (NCI-H716 cells): able to mediate GLP-1 biosynthesis and secretion; level of GLP-1 biosynthesis and secretion compared with oleoyl-LPI (NCI-H716 cells; NCI-H716 cells): higher than those achieved from oleoyl-LPI; activity in inducing and/or increasing secretion of GLP-1 from cells of the GI tract (NCI-H716 cells): equal to or higher than oleoyl-LPI
CCCCCCCCCCCCCCCC(=O)Nc1ccc(C#N)cc1 [ps317b]	0 to 20%	
CCCCCCCC/C=C\CCCCCCCC(=O)Nc1cccc(-c2nnn[nH]2)c1 [ps318a]	> 80%	GLP-1 biosynthesis and secretion from NCI-H716 L cells (NCI-H716 cells): able to mediate GLP-1 biosynthesis and secretion; level of GLP-1 biosynthesis and secretion compared with oleoyl-LPI (NCI-H716 cells; NCI-H716 cells): higher than those achieved from oleoyl-LPI; activity in inducing and/or increasing secretion of GLP-1 from cells of the GI tract (NCI-H716 cells): equal to or higher than oleoyl-LPI
CCCCC/C=C\C/C=C\CCCCCCCC(=O)Nc1ccc(C#N)cc1F [ps319]	0 to 20%	GLP-1 biosynthesis and secretion from NCI-H716 L cells (NCI-H716 cells): able to mediate GLP-1 biosynthesis and secretion
CCCCCCCCCCCCCCCC(=O)Nc1ccc(-c2nnn[nH]2)cc1 [ps320c]	0 to 20%	
CCCCCCCC/C=C\CCCCCCCC(=O)Nc1ccc(-c2nnn[nH]2)cc1.[Na+] [ps321a]		GLP-1 biosynthesis and secretion from NCI-H716 L cells (NCI-H716 cells): able to mediate GLP-1 biosynthesis and secretion; GLP-1 secretion Activity relative to oleoyl-LPI (NCI-H716 cells; [2]): Low (low GLP-1 secretion activity (0-20% of maximum GLP-1 secretion achieved with oleoyl-LPI))
CCCCC/C=C\C/C=C\CCCCCCCC(=O)Nc1ccc(-c2nnn[nH]2)cc1F [ps323b]	0 to 20%	GLP-1 biosynthesis and secretion from NCI-H716 L cells (NCI-H716 cells): able to mediate GLP-1 biosynthesis and secretion
